The text below walks through data of patent US8703479B2, “Technology and method to study microbial growth and adhesion to host-related surfaces and the host-microbiota interaction” (Universiteit Gent, priority 2009, dated 2014).

The test system of data set [1] is suspension of the ascending colon compartment of a SHIME system. As to the kind of experiment: Adhesion potential of a mixed microbial community under short-term prebiotic treatment in the adhesion module. The conditions noted are these: ascending colon SHIME suspension in luminal chamber, data not shown. An excerpt: A second objective of working with the in vitro adhesion module is to explore the adhesion potential of selected microbial cultures in the presence of a complex microbial community relevant for the terminal ileum and colon respectively and to evaluate the host cellular response towards this community. To this end, a suspension of the ascending colon compartment of a SHIME system was sampled and inoculated in the luminal chamber of the adhesion module in presence of inulin with a degree of polymerization between 2 and 20, and arabinoxylans (AX) with a degree of substitution of 0.7, and a strongly varying degree of polymerization (on average 200). The short-term effect of these functional foods was evaluated.

Data set [2] has as its system mucin-adhered microbiota of the SHIME. As to the kind of experiment: Long-term prebiotic treatment in the SHIME with adhesion modules, plate counts, Adhesion Related Prebiotic Index. Conditions: 2.5 g/L; for Adhesion Related Prebiotic Index (AR-PI): mucin-adhered microbial community, plate counts before and after the treatment. On the set-up: species or system human. The text has this:
The aim of this study was to evaluate the effect of known prebiotic compounds (inulin and arabinoxylan—AX) on the microbiota associated with the gut wall in different areas of the GI tract and under long-term representative conditions. For this purpose, the adhesion module was used together with a well-validated gastrointestinal model—the Simulator of the Human Intestinal Microbial Ecosystem (SHIME). Clearly, the inherent adhesion potency, the specific growth rate, the state of mucus layer and interaction with endogenous microorganisms (adhered or in suspension) determined the microbial potency to colonize the intestinal epithelium.
The reactor setup is adapted from the system, representing the gastrointestinal tract of the adult human, as described by Molly et al. (1993). The SHIME consists of a succession of five reactors simulating the different parts of the human gastrointestinal tract. The first two reactors are of the fill-and-draw principle to simulate different steps in food uptake and digestion, with peristaltic pumps adding a defined amount of SHIME feed (140 mL 3×/day) and pancreatic and bile liquid (60 mL 3×/day), respectively to the stomach (V1) and duodenum (V2) compartment and emptying the respective reactors after specified intervals. The last three compartments are continuously stirred reactors with constant volume and pH control. Retention time and pH of the different vessels are chosen in order to resemble in vivo conditions in the different parts of the gastrointestinal tract. The overall residence time of the last three vessels, simulating the large intestine, is 76 h. Upon inoculation with fecal microbiota, these reactors simulate the ascending (V3), transverse (V4) and descending (V5) colon. Inoculum preparation, retention time, pH, temperature settings and reactor feed composition were previously described by Possemiers et al. (2004). […]
During the basal period, the SHIME reactor is operated under nominal conditions. Parameters such as short chain fatty acid (SCFA) production and ammonium production are determined 3 times/week and plate count analyses are performed once a week for selected bacterial groups (total (an) aerobes, total Clostridia, lactobacilli, bifidobacteria, total coliforms, staphylococci). The results of these analyses serve as the background values to be used to compare the measured parameters from the treatment period. […]
During the treatment period, the SHIME reactor is operated under nominal conditions, but with a modified diet containing a lower amount of starch in the medium compared to that of the basal period and the effect of a specific compound (inulin or arabinoxylan—2.5 g/L) is tested. SCFA and ammonium production are determined 3 times/week and plate count analysis is performed once a week. […]

For data set [3] the following is noted: polycarbonate membrane, 200 μm-thick mucus layer, room temperature.
Description: The adhesion module was built with a functional double layer separating the completely anaerobic upper chamber (95% N2-5% CO2) from the aerobic lower chamber (95% O2-5% CO2). Oxygen concentration in the upper chamber was measured by means of a Hach Lange luminescent LDO oxygen probe. Experiments were conducted at room temperature with a 200 μm-thick mucus layer using a polycarbonate or a polyamide membrane.
A short description of data set [4]: Adhesion of a pure bacterial culture to the mucus-covered layer of the adhesion module. Conditions: contact time […]. How it is done:
A first objective of working with the in vitro adhesion module is to explore the adhesion potential of pure cultures of gut microorganisms vs mixed microbial communities onto a mucus-covered layer. A culture of Lactobacillus rhamnosus GG was grown in relevant medium and inoculated in the luminal chamber of the adhesion module. The luminal chamber of a second system was inoculated with an in vitro adapted microbial community originated from the ascending colon of a Simulator of the Human Intestinal Microbial Ecosystem (SHIME) reactor. The adhesion module consisted of a luminal chamber containing the growth medium and the inoculated bacterial strain and a basal chamber from which oxygen could diffuse across a semi-permeable polycarbonate membrane, which was covered on its luminal side with a mucin layer, relevant for the specific region of the gastrointestinal tract. The contact time between the inoculated bacteria and the functional layer was established in 1.5 h. […] The obtained suspension was analyzed for microbial concentration using plate counts specific for different bacterial groups. […] Although not further analyzed at this moment, also the medium and optionally present cells of the basal chamber can be sampled and analyses can be conducted to estimate the simulated host's cellular response.

Turning to inulin, the “effect on adhesion capacity of the investigated bacterial groups” value in data set [1] is “less or no influence”. Further, in data set [2], the “Adhesion Related Prebiotic Index (AR-PI)” value was 14.
Regarding `O=O` [Oxygen], the “relative diffusion coefficient (DO2)” value in data set [3] is 9.8.10^−6 cm^2/sec.
Consider arabinoxylan [AX], for which, in data set [1], the “effect on adhesion capacity of the investigated bacterial groups” value is given as “decreased the adhesion capacity of all the investigated groups”. In data set [2] (long-term SHIME treatment), the “effect on the luminal and mucin-associated bacteria compared to that of inulin” value is “stronger and more permanent”; the “stimulation of the adhered lactobacilli” value is recorded as “particularly potent”. Also, the “Adhesion Related Prebiotic Index (AR-PI)” value in data set [2] worked out at 70.
Consider Lactobacillus rhamnosus GG, for which the “factor by which adhesion to the mucin-agar layer is higher than to mucin-free agar” value in data set [4] was determined as 6.19. Also, the percentage adhesion in data set [4] (mucin-agar layer, plate counts) is 15.7±3.2%.
